Assay results from patent publication US11384071B2, “Inhibitors of mechanotransduction to treat pain and modulate touch perception” (Max-Delbrück-Centrum für Molekulare Medizin in der …, priority 2016, dated 2022).

Experiments:
[1] = target: T1, STOML3-FLAG (Mus musculus, UniProt Q6PE84); assay: dSTORM imaging of STOML3-FLAG cluster size at the plasma membrane of N2A cells; format: cell-based; conditions: pre-incubation three hours, 20 μM, vs vehicle
T1 construct: expressed in transfected cells; host or cells: N2A (Neuro2A)
T1 sequence (Q6PE84 whole entry): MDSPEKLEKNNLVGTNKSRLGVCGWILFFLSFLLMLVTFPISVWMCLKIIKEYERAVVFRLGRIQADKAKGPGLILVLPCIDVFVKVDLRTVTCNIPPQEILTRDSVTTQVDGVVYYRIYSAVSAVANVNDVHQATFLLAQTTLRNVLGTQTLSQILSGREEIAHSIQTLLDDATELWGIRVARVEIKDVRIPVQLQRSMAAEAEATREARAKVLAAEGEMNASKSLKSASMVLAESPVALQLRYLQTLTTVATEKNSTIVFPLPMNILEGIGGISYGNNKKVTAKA
Experimental: N2A cells were cultured on EHS-Laminin coated precision coverglass, thickness 0.17, then transfected with a plasmid encoding STOML3-FLAG. After overnight incubation, cells were treated for 3 hours with 20 μM compound, or DMSO as a control. Cells were then fixed (15 min, 4% PFA), permeabilized (0.05% TritonX 100, 5 min) and blocked (phosphate buffered saline (PBS) containing 10% fetal goat serum (FGS), 37° C., 1 hr). Cell were labeled with mouse anti-FLAG antibody (M2 clone, 1:100 in PBS containing 10% FGS). The secondary antibody was an Alexa647-conjugated, goat anti-mouse antibody (1:100 in PBS plus 10% FGS, 1 h, 37° C.). After staining, the samples were fixed again. […]
For analysis of STOML3 domain size, all reconstructed images were blinded and then from each imaged cell 100 individual dots were cropped (size: 20×20 pixels). A 2D-Gaussian fit was calculated using the Igor software (WaveMetrics, USA). […] After domain sizes had been determined for each cell, images were unblinded and then normalized against the average domain size for control cells prepared and imaged on the same day.
We next determined whether OB-1 and OB-2 modulation of STOML3 oligomerization state influences clustering of the protein in the plasma membrane. […]

[2] = system: mechanically gated currents in nociceptors; assay: Pillar array analysis of mechanically gated currents in DRG nociceptors; format: cell-based, mouse; conditions: for amplitude of mechanically gated currents in nociceptors: stimulus magnitudes between 100 and 500 nm
Experimental: HEK-293 cells (passage numbers 4-20) were cultured in DMEM plus 10% fetal calf serum (FCS). Neuro2A (N2A) cells were cultured in DMEM/Opti-MEM media plus 10% FCS.—Sensory DRG neurons were isolated from 4 week old Mus musculus (C57Bl/6). Approximately 20 ganglia were collected from each mouse and individual cells were isolated by treating ganglia with […] collagenase IV for 30 min, followed by 1 ml of 0.05% trypsin, in PBS, for 5-20 min at 37° C. Enzyme-treated ganglia, in DMEM/F-12 media containing 10% Horse Serum (HS), were disrupted by gently passaging through a 20 G needle; cells were then collected by centrifugation (1000 rpm, 3 min), washed and finally re-suspended in DMEM/F-12, 10% HS media (at no point were neurotrophins added to the culture). Sensory neurons were then seeded on EHS-laminin coated substrate and cultured overnight. Experiments involving isolated sensory neurons were conducted within 24-36 hours of isolation of the cells.
Whole-cell, patch-clamp recordings were conducted as previously described 5-7, using patch pipettes with a tip resistance of 3-6 MΩ, filled with a solution of: 110 mM KCl, 10 mM NaCl, 1 mM MgCl2, 1 mM EGTA and 10 mM HEPES, adjusted to pH 7.3 with KOH. (For experiments on DRG neurons 10 mM QX-314 was added to the pipette to block voltage-gated sodium channels 8 Extracellular solutions contained 140 mM NaCl, 4 mM KCl, 2 mM CaCl2, 1 mM MgCl2, 4 mM glucose, 10 mM HEPES, adjusted to pH 7.4 with NaOH. A Zeiss 200 inverted microscope and an EPC-10 amplifier in combination with Patchmaster software was used, data was analyzed using Fitmaster software (HEKA Electronik GmbH, Germany). Pipette and membrane capacitance were compensated using the auto function of Patchmaster, series resistance was compensated by at least 60% to minimize voltage errors. Mechanical stimuli were applied using a polished glass probe driven by the MM3A micromanipulator (Kleindiek Nanotechnik, Germany). […]
Briefly, elastomeric pillar arrays of defined dimensions were cast in PDMS with an elasticity of 2 MPa. Cells cultured on these arrays were monitored using whole-cell patch-clamp whilst a glass probe was used to apply repeated deflections (of differing magnitudes) to an individual pilus directly beneath the cell. Images were obtained of the pilus before and after deflection and images were analyzed off-line to determine the exact deflection for each data point. […] Images were analyzed off-line using Igor software (WaveMetrics, USA). […] A power analysis was used to determine that moderate to strong effects between samples could be detected with a sample size >4. […] For quantitative analysis of mechanosensitivity we measured responses in the most sensitive sub-population of mechanoreceptors, previously defined as Typell mechanoreceptors (Poole et al., 2014).

Structure (SMILES)	STOML3-FLAG cluster size [1]	amplitude of mechanically gated currents in nociceptors [2]	activation time constant for current activation τ1 ([2]; nociceptors)	latency for mechanically gated currents ([2]; nociceptors)
CCOC(=O)c1c(-c2ccccc2)oc2ccc(Oc3c([N+](=O)[O-])ncn3C)cc12 [OB-1, Ethyl 5-((1-methyl-4-nitro-1H-imidazol-5-yl)oxy)-2-phenylbenzofuran-3-carboxylate]	significantly reduced	significant reduction	–	–
Cc1ccnc(NC(=O)CSc2nnc3c4ccccc4n(Cc4ccccc4)c3n2)c1 [OB-2]	significantly reduced	significant reduction	significantly slowed	significantly slowed
